Measurements published in PubChem BioAssay AID1919005 (Molecular Pharmacology Branch, DTP, NCI, 2023).

Tested on: 855422-203-R-J1-PDC complex spheroid growth
Test: Anticancer human tumor 855422-203-R-J1-PDC patient-derived bladder carcinoma cell line growth inhibition [AhR]
Conditions: for IC50: curve of first compound; for viability, T/C: stronger effect = lower value
In short: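 Complex tumor spheroids co-cultured with HUVEC and human MSC stroma; AhR antagonists tested in combination with standard-of-care and investigational agents. Top concentration at or near clinical Cmax (else 10 microM), half-log dilutions; growth expressed as percent test/control.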

[1] = second compound 0.1 µM, first compound 0.00949 µM
[2] = second compound 0.1 µM, first compound 0.03 µM
[3] = second compound 0.1 µM, first compound 0.0949 µM
[4] = second compound 0.1 µM, first compound 0.3 µM
[5] = second compound 0.1 µM, first compound 0.949 µM
[6] = second compound 0.1 µM, first compound 3 µM
[7] = second compound 0.316 µM, first compound 0.00949 µM
[8] = second compound 0.316 µM, first compound 0.03 µM
[9] = second compound 0.316 µM, first compound 0.0949 µM
[10] = second compound 0.316 µM, first compound 0.3 µM
[11] = second compound 0.316 µM, first compound 0.949 µM
[12] = second compound 0.316 µM, first compound 3 µM
[13] = second compound 1 µM, first compound 0.00949 µM
[14] = second compound 1 µM, first compound 0.03 µM
[15] = second compound 1 µM, first compound 0.0949 µM
[16] = second compound 1 µM, first compound 0.3 µM
[17] = second compound 1 µM, first compound 0.949 µM
[18] = second compound 1 µM, first compound 3 µM
[19] = second compound 3.16 µM, first compound 0.00949 µM
[20] = second compound 3.16 µM, first compound 0.03 µM
[21] = second compound 3.16 µM, first compound 0.0949 µM
[22] = second compound 3.16 µM, first compound 0.3 µM
[23] = second compound 3.16 µM, first compound 0.949 µM
[24] = second compound 3.16 µM, first compound 3 µM
[25] = second compound 10 µM, first compound 0.00949 µM
[26] = second compound 10 µM, first compound 0.03 µM
[27] = second compound 10 µM, first compound 0.0949 µM
[28] = second compound 10 µM, first compound 0.3 µM
[29] = second compound 10 µM, first compound 0.949 µM
[30] = second compound 10 µM, first compound 3 µM
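Note: spheroids exposed to agents for seven days before readout.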
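Throughout, for viability, T/C: percent of DMSO vehicle control luminescence viability.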

Row | SMILES | IC50 (second compound 0.1 µM) [µM] | IC50 (second compound 0.316 µM) [µM] | IC50 (second compound 1 µM) [µM] | IC50 (second compound 3.16 µM) [µM] | IC50 (second compound 10 µM) [µM] | viability, T/C [1] [%] | viability, T/C [2] [%] | viability, T/C [3] [%] | viability, T/C [4] [%] | viability, T/C [7] [%] | viability, T/C [8] [%] | viability, T/C [9] [%] | viability, T/C [10] [%] | viability, T/C [13] [%] | viability, T/C [14] [%] | viability, T/C [15] [%] | viability, T/C [16] [%] | viability, T/C [19] [%] | viability, T/C [20] [%] | viability, T/C [21] [%] | other results
1 | O=C(C=Cn1cnc(-c2cc(C(F)(F)F)cc(C(F)(F)F)c2)n1)NNc1cnccn1 + CC(CO)NC(=O)c1cc(-c2ccc(Cl)cc2)nn(-c2cnn(C)c2)c1=O | 0.409 | 0.279 | 0.326 | 0.274 | 0.26 | 106 | 124 | 141 | 55.2 | 112 | 125 | 149 | 44.6 | 121 | 136 | 159 | 51.1 | 108 | 123 | 152 | viability, T/C [5]: 40.1%; viability, T/C [6]: 32.1%; viability, T/C [11]: 36.8%; viability, T/C [12]: 33%; viability, T/C [17]: 37.8%; viability, T/C [18]: 31.1%; viability, T/C [22]: 43.4%; viability, T/C [23]: 41.1%; viability, T/C [24]: 28.6%; viability, T/C [25]: 100%; viability, T/C [26]: 134%; viability, T/C [27]: 144%; viability, T/C [28]: 39.2%; viability, T/C [29]: 33.6%; viability, T/C [30]: 31.1%
2 | Nc1ncn(C2CC(O)C(CO)S2)c(=O)n1 (stereo not given) + CC(CO)NC(=O)c1cc(-c2ccc(Cl)cc2)nn(-c2cnn(C)c2)c1=O | > 0.3 | > 0.3 | > 0.3 | > 0.3 | > 0.3 | 88.3 | 93.4 | 96.7 | 87.4 | 99.4 | 95.2 | 87.6 | 82.2 | 101 | 92.1 | 101 | 86.7 | 85.3 | 101 | 90.9 | viability, T/C (second compound 0.1 µM, first compound 0.000949 µM): 91.9%; viability, T/C (second compound 0.1 µM, first compound 0.003 µM): 90.2%; viability, T/C (second compound 0.316 µM, first compound 0.000949 µM): 97.3%; viability, T/C (second compound 0.316 µM, first compound 0.003 µM): 93.3%; viability, T/C (second compound 1 µM, first compound 0.000949 µM): 99.9%; viability, T/C (second compound 1 µM, first compound 0.003 µM): 90.9%; viability, T/C (second compound 3.16 µM, first compound 0.000949 µM): 91.8%; viability, T/C (second compound 3.16 µM, first compound 0.003 µM): 94.5%; viability, T/C [22]: 80.4%; viability, T/C (second compound 10 µM, first compound 0.000949 µM): 92.5%; viability, T/C (second compound 10 µM, first compound 0.003 µM): 98%; viability, T/C [25]: 87.3%; viability, T/C [26]: 93.5%; viability, T/C [27]: 89.8%; viability, T/C [28]: 80.3%
3 | CCN(c1cc(-c2ccc(CN3CCOCC3)cc2)cc(C(=O)NCc2c(C)cc(C)[nH]c2=O)c1C)C1CCOCC1 + Cc1cncc(-c2nc(NCCc3c[nH]c4ccccc34)c3ncn(C(C)C)c3n2)c1 | > 3 | > 3 | > 3 | > 3 | < 0.00949 | 90.5 | 84.7 | 92 | 83.1 | 88.9 | 78.3 | 86.6 | 74.2 | 89.4 | 85.7 | 74.8 | 75 | 74.8 | 85.5 | 64.1 | viability, T/C [5]: 85.3%; viability, T/C [6]: 70.7%; viability, T/C [11]: 76.2%; viability, T/C [12]: 75.7%; viability, T/C [17]: 76.1%; viability, T/C [18]: 73.7%; viability, T/C [22]: 51.7%; viability, T/C [23]: 69%; viability, T/C [24]: 66.3%; viability, T/C [25]: 24.9%; viability, T/C [26]: 32.4%; viability, T/C [27]: 15.5%; viability, T/C [28]: 1.7%; viability, T/C [29]: 4.26%; viability, T/C [30]: 0.96%
